As usually defined, the IC50 is the midpoint of a concentration-inhibition curve.

Holding throughout (assay type): functional, cell-based
Assay [1] has as its system SNB-19. As to the kind of experiment: Antitumor activity against human SNB19 cells after 2 hrs. As to conditions: SNB-19, 2 h.
The test system of assay [2] is SNB-19. Description: Antitumor activity against human SNB19 cells after 24 hrs. As to conditions: SNB-19, 24 h.
For assay [3], the system named is SNB-19. Description: Antitumor activity against human SNB19 cells after 48 hrs. As to conditions: SNB-19, 48 h.

In the case of `Cc1onc(-c2c3ccccc3c(Cl)c3ccccc23)c1C(=O)NCCCN(C)CCCNC(=O)c1c(-c2c3ccccc3c(Cl)c3ccccc23)noc1C`, the IC50 with SNB-19 [1] was determined as 114 µM; in the assay on SNB-19 [2], 23.9 µM; in the assay on SNB-19 [3] it was 30.1 µM.
